Laboratory results: patent publication US9253983B2, “Triazole compound and use thereof” (KUREHA CORPORATION, priority 2011, dated 2016)

Tests used:
[1] = tested on: wheat; assay: Growth inhibition (adverse effects) of seed treatment on wheat seeds; assay type: in vivo; details: for Growth inhibition index: wheat, 20 days after sowing
Description: A pot experiment was performed to evaluate the growth inhibition (adverse effects) caused by the seed treatment. Compound (1-1a) and Compound (1-2a), each of which was dissolved in DMSO to make up such a concentration that the seeds would be treated in treatment amount of 2 g to 200 g ai/100 kg seeds, were each applied to wheat seeds in a vial, and thereafter 8 wheat seeds were sowed in an 80-cm^2 pot. The pot was kept in a greenhouse with water supplied to its bottom. 20 days after the sowing, a growth measure of wheat was evaluated. A growth inhibition index was calculated based on the criteria shown by Table 10. In Table 10, a smaller growth inhibition index indicates a lesser adverse effect of growth inhibition caused by the treatment with the use of a plant disease controlling agent.

[2] = tested on: wheat; assay: Necrosis (adverse effects) of seed treatment on wheat seeds; assay type: in vivo; details: 20 days after sowing
Description: A pot experiment was performed to evaluate necrosis (adverse effects) caused by the seed treatment. Compound (1-1a) and Compound (1-2a), each which was dissolved in DMSO to make up such a concentration that the seeds would be treated in treatment amount of 2 g to 200 g ai/100 kg seeds, were each applied to wheat seeds in a vial, and thereafter 8 wheat seeds were sowed in an 80-cm^2 pot. The pot was kept in a greenhouse with water supplied to its bottom. 20 days after the sowing, an extent of necrosis (percentage of necrotic surface area) of wheat was evaluated. A necrosis index was derived from the percentage of the necrotic surface area, based on the criteria shown by Table 13. In Table 13, a smaller necrosis index indicates a lesser adverse effect of necrosis caused by the treatment with the use of a plant disease controlling agent.

[3] = tested on: Phaeosphaeria nodorum; assay: Test 1 for antifungal effect, plate medium: P.n; assay type: cell-based; details: PDA plate medium
Description: (§1) Compound (1-1a) or Compound (1-2a) was dissolved in dimethyl sulfoxide, and the resulting solution was added to a PDA medium (potato dextrose-agar medium) at about 60° C. The medium and the solution were mixed thoroughly in a conical flask, poured into a petri dish, and allowed to solidify. In this way, a plate medium containing Compound (1-1a) or Compound (1-2a) at a certain concentration was prepared.
(§2) Meanwhile, test microorganisms cultured on a plate medium in advance were cut out with the use of a cork borer 4 mm in diameter, and were inoculated onto the compound-containing plate medium. After the inoculation, the microorganisms were cultured at their optimum growth temperatures (for example, refer to LIST OF CULTURES 1996 microorganisms 10th edition, Institute for Fermentation (foundation)) for 1 day to 7 days, and their growth was determined by measuring the diameter of their flora. The extent of growth of the microorganisms on the compound-containing plate medium was compared with that of microorganisms on a plate medium where no compound was added, and mycelial growth inhibition rate was calculated by the following equation: R=100(dc−dt)/dc where R is mycelial growth inhibition rate (%), dc is the flora diameter in untreated plate, and dt is the flora diameter in plate treated with the compound.
(§3) A larger antifungal index indicates a better antifungal effect.

[4] = tested on: Microdochium nivale; assay: Test 1 for antifungal effect, plate medium: M.n; assay type: cell-based; details: PDA plate medium
Description: as §1, §2, §3

[5] = tested on: Gibberella fujikuroi; assay: Test 1 for antifungal effect, plate medium: G.f; assay type: cell-based; details: PDA plate medium
Description: as §1, §2, §3

[6] = tested on: Rhizopus oryzae; assay: Test 1 for antifungal effect, plate medium: R.o; assay type: cell-based; details: PDA plate medium
Description: as §1, §2, §3

[7] = tested on: Sclerotinia sclerotiorum; assay: Test 1 for antifungal effect, plate medium: S.s; assay type: cell-based; details: PDA plate medium
Description: as §1, §2, §3

[8] = tested on: Botrytis cinerea; assay: Test 1 for antifungal effect, plate medium: B.c; assay type: cell-based; details: PDA plate medium
Description: as §1, §2, §3

[9] = tested on: Glomerella cingurata; assay: Test 1 for antifungal effect, plate medium: G.c; assay type: cell-based; details: PDA plate medium
Description: as §1, §2, §3

[10] = tested on: Ustilago nuda; assay: Test 2 for antifungal effect, plate medium: U.n; assay type: cell-based; details: PDA plate medium
Description: as §1, with “(1-1b)” for “(1-1a)”, “(1-2b)” for “(1-2a)”
(§4) Meanwhile, test microorganisms cultured on a plate medium in advance were cut out with the use of a cork borer 4 mm in diameter, and were inoculated onto the compound-containing plate medium. After the inoculation, the pathogens were cultured at their optimum growth temperatures (for example, refer to LIST OF CULTURES 1996 microorganisms 10th edition, Institute for Fermentation (foundation)) for 1 day to 7 days, and their growth was determined by measuring the diameter of their flora. The extent of growth of the pathogens on the compound-containing plate medium was compared with that of pathogens on a plate medium where no compound was added, and mycelial growth inhibition rate was calculated as in Experiment Example 10. Note that, in Experiment Example 11, controls used in the antifungal effect tests are Compound (1-1a) and Compound (1-2a) instead of Compound (1-1b) and Compound (1-2b), respectively.
(§5) The results were rated on a 1-to-5 scale as in Experiment Example 10.

[11] = tested on: Penicillium italicum; assay: Test 2 for antifungal effect, plate medium: P.i; assay type: cell-based; details: PDA plate medium
Description: as §1, with “(1-1b)” for “(1-1a)”, “(1-2b)” for “(1-2a)”
as §4, §5

[12] = tested on: Septoria tritici; assay: Test 2 for antifungal effect, plate medium: S.t; assay type: cell-based; details: PDA plate medium
Description: as §1, with “(1-1b)” for “(1-1a)”, “(1-2b)” for “(1-2a)”
as §4, §5

[13] = treatment amount 2 g ai/100 kg seeds
[14] = treatment amount 20 g ai/100 kg seeds
[15] = treatment amount 200 g ai/100 kg seeds

CC1(CCl)CCC(Cc2ccc(F)cc2)C1(O)Cn1cncn1 (single isomer, unassigned) [Compound (1-2b), (1,2-cis, 1,5-cis)-5-(4-fluorobenzyl)-2-chloromethyl-2-methyl-1-(1H-1,2,4-triazole-1-ylmethyl)cyclopentanol] was tested, and the “Growth of the treated seeds” value ([1]; wheat seed treatment 20 g ai/100 kg seeds (seen in the brown rust seed treatment test)) was “inhibited”, the Growth inhibition index [1, 13] was 0 (50% or more) and the Growth inhibition index [1, 14] was 4 (Less than 20% but 10% or more). The Growth inhibition index [1, 15] was 5 (Less than 10%), the Necrosis index [2, 13] was 0 (Less than 1%) and the Necrosis index [2, 14] was 3 (20% or more). For the same compound, the Necrosis index [2, 15] was 3 (20% or more), the “Antifungal index (mycelial growth inhibition rate)” value ([3]; 0.16 mg/L) was 1 (Less than 60%) and the “Antifungal index (mycelial growth inhibition rate)” value ([3]; 0.31 mg/L) was 1 (Less than 60%). The “Antifungal index (mycelial growth inhibition rate)” value ([3]; 0.63 mg/L) was 2 (Less than 70% but not less than 60%), the “Antifungal index (mycelial growth inhibition rate)” value ([3]; 1.25 mg/L) was 3 (Less than 80% but not less than 70%) and the “Antifungal index (mycelial growth inhibition rate)” value ([3]; 2.50 mg/L) was 5 (90% or greater). For the same compound, the “Antifungal index (mycelial growth inhibition rate)” value ([4]; 0.16 mg/L) was 1 (Less than 60%), the “Antifungal index (mycelial growth inhibition rate)” value ([4]; 0.31 mg/L) was 1 (Less than 60%) and the “Antifungal index (mycelial growth inhibition rate)” value ([4]; 0.63 mg/L) was 1 (Less than 60%). The “Antifungal index (mycelial growth inhibition rate)” value ([4]; 1.25 mg/L) was 1 (Less than 60%), the “Antifungal index (mycelial growth inhibition rate)” value ([4]; 2.50 mg/L) was 2 (Less than 70% but not less than 60%) and the “Antifungal index (mycelial growth inhibition rate)” value ([5]; 0.16 mg/L) was 3 (Less than 80% but not less than 70%). The “Antifungal index (mycelial growth inhibition rate)” value ([5]; 0.31 mg/L) was 4 (Less than 90% but not less than 80%), the “Antifungal index (mycelial growth inhibition rate)” value ([5]; 0.63 mg/L) was 5 (90% or greater) and the “Antifungal index (mycelial growth inhibition rate)” value ([5]; 1.25 mg/L) was 5 (90% or greater). For the same compound, the “Antifungal index (mycelial growth inhibition rate)” value ([5]; 2.50 mg/L) was 5 (90% or greater), the “Antifungal index (mycelial growth inhibition rate)” value ([6]; 0.16 mg/L) was 1 (Less than 60%) and the “Antifungal index (mycelial growth inhibition rate)” value ([6]; 0.31 mg/L) was 1 (Less than 60%). The “Antifungal index (mycelial growth inhibition rate)” value ([6]; 0.63 mg/L) was 1 (Less than 60%), the “Antifungal index (mycelial growth inhibition rate)” value ([6]; 1.25 mg/L) was 1 (Less than 60%) and the “Antifungal index (mycelial growth inhibition rate)” value ([6]; 2.50 mg/L) was 2 (Less than 70% but not less than 60%). For the same compound, the “Antifungal index (mycelial growth inhibition rate)” value ([7]; 0.16 mg/L) was 3 (Less than 80% but not less than 70%), the “Antifungal index (mycelial growth inhibition rate)” value ([7]; 0.31 mg/L) was 5 (90% or greater) and the “Antifungal index (mycelial growth inhibition rate)” value ([7]; 0.63 mg/L) was 5 (90% or greater). The “Antifungal index (mycelial growth inhibition rate)” value ([7]; 1.25 mg/L) was 5 (90% or greater), the “Antifungal index (mycelial growth inhibition rate)” value ([7]; 2.50 mg/L) was 5 (90% or greater) and the “Antifungal index (mycelial growth inhibition rate)” value ([8]; 0.16 mg/L) was 1 (Less than 60%). The “Antifungal index (mycelial growth inhibition rate)” value ([8]; 0.31 mg/L) was 3 (Less than 80% but not less than 70%), the “Antifungal index (mycelial growth inhibition rate)” value ([8]; 0.63 mg/L) was 5 (90% or greater) and the “Antifungal index (mycelial growth inhibition rate)” value ([8]; 1.25 mg/L) was 5 (90% or greater). For the same compound, the “Antifungal index (mycelial growth inhibition rate)” value ([8]; 2.50 mg/L) was 5 (90% or greater), the “Antifungal index (mycelial growth inhibition rate)” value ([9]; 0.16 mg/L) was 3 (Less than 80% but not less than 70%) and the “Antifungal index (mycelial growth inhibition rate)” value ([9]; 0.31 mg/L) was 4 (Less than 90% but not less than 80%). For the same compound, the “Antifungal index (mycelial growth inhibition rate)” value ([9]; 0.63 mg/L) was 5 (90% or greater), the “Antifungal index (mycelial growth inhibition rate)” value ([9]; 1.25 mg/L) was 5 (90% or greater) and the “Antifungal index (mycelial growth inhibition rate)” value ([9]; 2.50 mg/L) was 5 (90% or greater). The “Antifungal index (mycelial growth inhibition rate)” value ([10]; 0.04 mg/L) was 1 (Less than 60%), the “Antifungal index (mycelial growth inhibition rate)” value ([10]; 0.08 mg/L) was 1 (Less than 60%) and the “Antifungal index (mycelial growth inhibition rate)” value ([10]; 0.16 mg/L) was 2 (Less than 70% but not less than 60%). For the same compound, the “Antifungal index (mycelial growth inhibition rate)” value ([10]; 0.31 mg/L) was 4 (Less than 90% but not less than 80%), the “Antifungal index (mycelial growth inhibition rate)” value ([10]; 0.63 mg/L) was 4 (Less than 90% but not less than 80%) and the “Antifungal index (mycelial growth inhibition rate)” value ([10]; 1.25 mg/L) was 5 (90% or greater). The “Antifungal index (mycelial growth inhibition rate)” value ([11]; 0.04 mg/L) was 1 (Less than 60%), the “Antifungal index (mycelial growth inhibition rate)” value ([11]; 0.08 mg/L) was 4 (Less than 90% but not less than 80%) and the “Antifungal index (mycelial growth inhibition rate)” value ([11]; 0.16 mg/L) was 5 (90% or greater). For the same compound, the “Antifungal index (mycelial growth inhibition rate)” value ([11]; 0.31 mg/L) was 5 (90% or greater), the “Antifungal index (mycelial growth inhibition rate)” value ([11]; 0.63 mg/L) was 5 (90% or greater) and the “Antifungal index (mycelial growth inhibition rate)” value ([11]; 1.25 mg/L) was 5 (90% or greater). The “Antifungal index (mycelial growth inhibition rate)” value ([12]; 0.04 mg/L) was 2 (Less than 70% but not less than 60%), the “Antifungal index (mycelial growth inhibition rate)” value ([12]; 0.08 mg/L) was 5 (90% or greater) and the “Antifungal index (mycelial growth inhibition rate)” value ([12]; 0.16 mg/L) was 5 (90% or greater). The “Antifungal index (mycelial growth inhibition rate)” value ([12]; 0.31 mg/L) was 5 (90% or greater), the “Antifungal index (mycelial growth inhibition rate)” value ([12]; 0.63 mg/L) was 5 (90% or greater) and the “Antifungal index (mycelial growth inhibition rate)” value ([12]; 1.25 mg/L) was 5 (90% or greater).
